In patent US6653300B2, “Pyrazole compounds useful as protein kinase inhibitors” (Vertex Pharmaceuticals Incorporated, priority 2000, dated 2003):

Tests used:
GSK-3β (AA 1-420) = molecular target: T1, GSK-3β (AA 1-420) (Homo sapiens, UniProt P49841); experiment: Ki determination for the inhibition of GSK-3 (coupled enzyme system); format: biochemical; settings: 20 μM ATP, 20 nM GSK-3β, 30° C.
T1 construct: GSK-3β (AA 1-420)
Summary of the method: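 GSK-3β (AA 1-420, 20 nM) was run in a pyruvate kinase/LDH-coupled NADH assay in 100 mM HEPES pH 7.5, 10 mM MgCl2, 25 mM NaCl, 1 mM DTT, 1.5% DMSO, with 300 μM phosphopeptide substrate. Compound (0.002–30 μM) was preincubated 10 min at 30° C, then 20 μM ATP was added.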

Aurora-2 = molecular target: T2, Aurora-2 (Homo sapiens, UniProt O14965); experiment: Ki determination for the inhibition of Aurora-2 (coupled enzyme assay); format: biochemical; settings: 70 nM Aurora-2, 30° C.
T2 sequence (O14965 1-403): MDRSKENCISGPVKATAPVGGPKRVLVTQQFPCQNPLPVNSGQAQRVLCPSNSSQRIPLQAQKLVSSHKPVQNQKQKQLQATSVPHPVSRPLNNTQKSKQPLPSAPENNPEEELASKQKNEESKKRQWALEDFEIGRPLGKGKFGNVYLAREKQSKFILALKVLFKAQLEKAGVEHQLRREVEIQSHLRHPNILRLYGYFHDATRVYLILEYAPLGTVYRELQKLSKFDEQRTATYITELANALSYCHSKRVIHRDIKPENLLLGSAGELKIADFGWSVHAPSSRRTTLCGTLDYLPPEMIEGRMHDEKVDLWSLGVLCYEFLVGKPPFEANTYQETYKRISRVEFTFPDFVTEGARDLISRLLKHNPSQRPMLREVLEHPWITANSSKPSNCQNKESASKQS
Method: Compounds were screened in the following manner for their ability to inhibit Aurora-2 using a standard coupled enzyme assay (Fox et al (1998) Protein Sci 7, 2249).
To an assay stock buffer solution containing 0.1M HEPES 7.5, 10 mM MgCl2, 1 mM DTT, 25 mM NaCl, 2.5 mM phosphoenolpyruvate, […], 30 mg/ml pyruvate kinase, 10 mg/ml lactate dehydrogenase, […], and 800 μM peptide (LRRASLG, American Peptide, Sunnyvale, Calif.) was added a DMSO solution of a compound of the present invention to a final concentration of 30 μM. The resulting mixture was incubated at 30° C. for 10 min. The reaction was initiated by the addition of 10 μL of Aurora-2 stock solution to give a final concentration of 70 nM in the assay. The rates of reaction were obtained by monitoring absorbance at 340 nm over a 5 minute read time at 30° C. using a BioRad Ultramark plate reader (Hercules, Calif.). The Ki values were determined from the rate data as a function of inhibitor concentration.

T1 sequence (P49841 whole entry, the tested form may be a part): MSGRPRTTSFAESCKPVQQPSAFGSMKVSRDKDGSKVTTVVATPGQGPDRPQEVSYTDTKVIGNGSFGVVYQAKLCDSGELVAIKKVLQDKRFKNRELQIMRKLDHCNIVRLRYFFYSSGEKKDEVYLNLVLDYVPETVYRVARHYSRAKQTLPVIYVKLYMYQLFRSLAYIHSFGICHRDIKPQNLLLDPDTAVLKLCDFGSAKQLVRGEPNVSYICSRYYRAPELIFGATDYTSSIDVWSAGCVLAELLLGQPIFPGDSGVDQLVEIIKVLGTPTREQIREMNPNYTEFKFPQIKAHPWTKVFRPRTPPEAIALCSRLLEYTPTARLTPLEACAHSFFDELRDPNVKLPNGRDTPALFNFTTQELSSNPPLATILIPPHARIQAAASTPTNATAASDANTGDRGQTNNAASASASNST

| SMILES | Ki (GSK-3β (AA 1-420)) [nM] | Ki (Aurora-2) [nM] | melting point [°C] |
| --- | --- | --- | --- |
| CC(=O)Nc1ccc(Sc2nc(Nc3cc(C)n[nH]3)cc(-c3ccc(OCCCN(C)C)cc3)n2)cc1 [IIIa-43, {2-(4-Acetamido-phenyl-sulfanyl)-6-[4-(3-dimethylamino-propoxy)-phenyl]-pyrimidin-4-yl}-(5-methyl-2H-pyrazol-3-yl)-amine] | 1000 to 7000 | 1000 to 10000 | 219 to 222 |
| CCc1ccccc1Sc1nc(Nc2cc(C)[nH]n2)c2ccccc2n1 [IIa-5, [2-(2-Ethylphenylsulfanyl)-quinazolin-4-yl]-(5-methyl-2H-pyrazol-3-yl)-amine] | 100 to 1000 | < 100 | 205 to 208 |
| Cc1cc(Nc2nc(Sc3nccn3C)nc3ccccc23)n[nH]1 [IIa-10, [2-(1-Methylimidazol-2-ylsulfanyl)-quinazolin-4-yl]-(5-methyl-2H-pyrazol-3-yl)-amine] | 1000 to 7000 | 1000 to 10000 | 255 to 256 |
| Cc1cc(Nc2nc(Sc3ccccc3O)nc3ccccc23)n[nH]1 [IIa-11, [2-(2-Hydroxyphenylsulfanyl)-quinazolin-4-yl]-(5-methyl-2H-pyrazol-3-yl)-amine] | < 100 | < 100 | 273 to 275 |
| Cc1cc(Nc2nc(Sc3ccc(F)cc3F)nc3ccccc23)n[nH]1 [IIa-12, [2-(2,4-Difluorophenylsulfanyl)-quinazolin-4-yl]-(5-methyl-2H-pyrazol-3-yl)-amine] | < 100 | < 100 | 256 to 258 |
| COC(=O)c1cccc(Sc2nc(Nc3cc(C4CC4)[nH]n3)c3ccccc3n2)c1 [IIa-22, (5-Cyclopropyl-2H-pyrazol-3-yl)-[2-(3-methoxycarbonylphenylsulfanyl)-quinazolin-4-yl]-amine] | < 100 | < 100 | 224 to 225 |
| O=C(O)c1cccc(Sc2nc(Nc3cc(C4CC4)[nH]n3)c3ccccc3n2)c1 [IIa-26, [2-(3-Carboxyphenylsulfanyl)-quinazolin-4-yl]-(5-cyclopropyl-2H-pyrazol-3-yl)-amine] | < 100 | < 100 | > 300 |
| c1ccc2cc(Sc3nc4c(c(Nc5cc(C6CC6)[nH]n5)n3)CCCC4)ccc2c1 [IIa-29, (5-Cyclopropyl-2H-pyrazol-3-yl)-[2-(naphthalen-2-ylsulfanyl)-5,6,7,8-tetrahydroquinazolin-4-yl-]-amine] | 100 to 1000 | < 100 | 244 |
| c1ccc2[nH]c(Sc3nc(Nc4cc(C5CC5)[nH]n4)c4ccccc4n3)nc2c1 [IIa-34, [2-(Benzimidazol-2-ylsulfanyl)-quinazolin-4-yl]-(5-cyclopropyl-2H-pyrazol-3-yl)-amine] | 100 to 1000 | < 100 | 201 to 203 |
| COC(=O)c1ccc(Sc2nc(Nc3cc(C4CC4)[nH]n3)c3ccccc3n2)cc1 [IIa-35, (5-Cyclopropyl-2H-pyrazol-3-yl)-[2-(4-methoxycarbonylphenylsulfanyl)-quinazolin-4-yl]-amine] | 100 to 1000 | < 100 | 245 to 246 |
| CC(=O)Nc1ccc(Sc2nc(Nc3cc(C)[nH]n3)c3cccc(OCCCN4CCOCC4)c3n2)cc1 [IIa-41, [2-(4-Acetamidophenylsulfanyl)-8-(3-morpholin-4-yl-propoxy)-quinazolin-4-yl]-(5-methyl-2H-pyrazol-3-yl)-amine] | 100 to 1000 | < 100 | 262 to 264 |
| COC(=O)c1ccc(Sc2nc(Nc3cc(C)[nH]n3)c3ccccc3n2)cc1 [IIa-42, [2-(4-Methoxycarbonylphenylsulfanyl)-quinazolin-4-yl]-(5-methyl-2H-pyrazol-3-yl)-amine] | 100 to 1000 | < 100 | 257 to 260 |
| Cc1cc(Nc2nc(Sc3ccc(C(=O)O)cc3)nc3ccccc23)[nH]n1 [IIa-43, [2-(4-Carboxyphenylsulfanyl)-quinazolin-4-yl]-(5-methyl-2H-pyrazol-3-yl)-amine] | < 100 | < 100 | 263 to 265 |
| Cc1cc(Nc2nc(Sc3ccc(Br)cc3)nc3ccccc23)n[nH]1 [IIa-46, [2-(4-Bromophenylsulfanyl)-quinazolin-4-yl]-(5-methyl-2H-pyrazol-3-yl)-amine] | < 100 | < 100 | > 300 |
| Cc1cc(Nc2nc(Sc3cccc(Br)c3)nc3ccccc23)n[nH]1 [IIa-47, [2-(3-Bromophenylsulfanyl)-quinazolin-4-yl]-(5-methyl-2H-pyrazol-3-yl)-amine] | < 100 | < 100 | 280 to 281 |
| Cc1cc(Nc2nc(Sc3ccc(NC(=O)C(C)C)cc3)nc3ccccc23)n[nH]1 [IIa-49, [2-(4-Isobutyrylamino-phenylsulfanyl)-quinazolin-4-yl]-(5-methyl-2H-pyrazol-3-yl)-amine] | 1000 to 7000 | < 100 | 285 to 287 |
| CS(=O)(=O)Nc1ccc(Sc2nc(Nc3cc(C4CC4)[nH]n3)c3ccccc3n2)cc1 [IIa-61, (5-Cycloprpyl-2H-pyrazol-3-yl)-[2-(4-methylsulfonylamino-phenylsulfanyl)-quinazolin-4-yl]-amine] | < 100 | < 100 | 235 to 238 |
| Cc1cc(Nc2nc(Sc3ccc(N)cc3)nc3ccccc23)n[nH]1 [IIa-62, [2-(4-Amino-phenylsulfanyl)-quinazolin-4-yl]-(5-methyl-2H-pyrazol-3-yl)-amine] | 100 to 1000 | < 100 | > 300 |
| Cc1cc(Nc2nc(Sc3ccc(NC(=O)CCCN4CCOCC4)cc3)nc3ccccc23)n[nH]1 [IIa-64, (5-Methyl-2H-pyrazol-3-yl)-{2-[4-(4-morpholin-4-yl-butyrylamino)-phenylsulfanyl]-quinazolin-4-yl}-amine] | 1000 to 7000 | < 100 | 240 to 243 |
| COc1cccc2c(Nc3cc(C)[nH]n3)nc(Sc3ccc(NS(C)(=O)=O)cc3)nc12 [IIa-66, [8-Methoxy-2-(4-methylsulfonylamino-phenylsulfanyl)-quinazolin-4-yl]-(5-methyl-2H-pyrazol-3-yl)-amine] | 100 to 1000 | < 100 | 275 to 277 |
| Cc1cc(Nc2nc(Sc3ccc(C(=O)NCCN(C)C)cc3)nc3ccccc23)n[nH]1 [IIa-67, {2-[4-(2-Dimethylamino-ethylcarbamoyl)-phenylsulfanyl]-quinazolin-4-yl}-(5-methyl-2H-pyrazol-3-yl)-amine] | 1000 to 7000 | 100 to 1000 | 192 to 193 |
| Cc1cc(Nc2nc(Sc3ccc(NS(C)(=O)=O)cc3)nc3c(O)cccc23)n[nH]1 [IIa-69, [8-Hydroxy-2-(4-methylsulfonylamino-phenylsulfanyl)-quinazolin-4-yl]-(5-methyl-2H-pyrazol-3-yl)-amine] | 100 to 1000 | < 100 | 291 to 293 |
| COc1cccc2c(Nc3cc(C4CC4)[nH]n3)nc(Sc3ccc(NC(C)=O)cc3)nc12 [IIa-72, [2-(4-Acetamido-phenylsulfanyl)-8-methoxy-quinazolin-4-yl]-(5-cyclopropyl-2H-pyrazol-3-yl)-amine] | 1000 to 7000 | < 100 | 265 to 268 |
| CC(=O)Nc1ccc(Sc2nc(Nc3cc(C)[nH]n3)c3ccc(OCCCN(C)C)cc3n2)cc1 [IIa-75, [2-(4-Acetamidophenylsulfanyl)-7-(3-dimethylamino-propoxy)-quinazolin-4-yl]-(5-methyl-2H-pyrazol-3-yl)-amine] | – | < 100 | 249 to 250 |
| Cc1cc(Nc2nc(Oc3ccc4ccccc4c3)nc3ccccc23)n[nH]1 [IIb-2, (5-Methyl-2H-pyrazol-3-yl)-[2-(naphthalen-2-yloxy)-quinazolin-4-yl]-amine] | – | < 100 | > 300 |
| COc1cccc(Oc2nc(Nc3cc(C)[nH]n3)c3ccccc3n2)c1 [IIb-6, [2-(3-Methoxyphenoxy)-quinazolin-4-yl]-(5-methyl-2H-pyrazol-3-yl)-amine] | – | < 100 | 277 to 278 |
| c1ccc(-c2cccc(Nc3nc(Nc4cc(C5CC5)[nH]n4)c4ccccc4n3)c2)cc1 [IIc-46, [2-(Biphenyl-3-ylamino)-quinazolin-4-yl]-(5-cyclopropyl-2H-pyrazol-3-yl)-amine] | – | < 100 | 153 |
